Test results: patent US9186360B2, “Treatment of respiratory disorders using TRPA1 antagonists” (GLENMARK PHARMACEUTICALS S.A., priority 2011, dated 2015)

Legend:
[1] = molecular target: human TRPV3 (Homo sapiens (Human), UniProt Q8NET8); test: Radiometric calcium selectivity assay, CHO cells expressing human TRPV3 (2-aminoethoxydiphenyl borate); type: cell-based; settings: read-out: IC50 values hTRPV3
Description: (§1) For selectivity screening, CHO cells stably expressing human TRPV1, human TRPV3, human TRPV4, or human TRPM8 were generated in-house and maintained in DMEM F-12 supplemented with 10% FBS and G418. All the cell types were cultured at 37° C. in humidified air containing 5% CO2. Radiometric calcium assay was performed as described above with some minor modifications. Assay was carried out in total volume of 200 μl at 30° C. (for TRPV1), 32° C. (for TRPV3) and 25° C. (for TRPV4 and TRPM8). Agonists used for selectivity screening of the different TRPs are: Capsaicin for TRPV1,2-aminoethoxydiphenyl borate for TRPV3, 4α-phorbol 12,13-didecanoate for TRPV4 and Icilin for TRPM8. After 2-5 minutes of agonist treatment, drug was washed and lysed in lysis buffer as mentioned above. Radioactivity in the lysate was measured in Packard Top count after addition of liquid scintillant.

[2] = molecular target: human TRPM8 (Homo sapiens (Human), UniProt Q7Z2W7); test: Radiometric calcium selectivity assay, CHO cells expressing human TRPM8 (icilin); type: cell-based; settings: read-out: IC50 values hTRPM8
Description: as §1

[3] = molecular target: human TRPV1 (Homo sapiens (Human), UniProt Q8NER1); test: Radiometric calcium selectivity assay, CHO cells expressing human TRPV1 (capsaicin); type: cell-based; settings: read-out: IC50 values hTRPV1
Description: as §1

[4] = molecular target: human TRPV4 (Homo sapiens (Human), UniProt Q9HBA0); test: Radiometric calcium selectivity assay, CHO cells expressing human TRPV4 (4α-phorbol 12,13-didecanoate); type: cell-based; settings: read-out: IC50 values hTRPV4
Description: as §1

[5] = molecular target: human TRPA1 (Homo sapiens (Human), UniProt O75762); test: 45Calcium uptake assay, AITC induced, human TRPA1 expressing CHO cells; type: cell-based; settings: AITC 30 micromolar, read-out: IC50 values hTRPA1
Description: As contemplated herein, the IC50 value is measured by the following method. The inhibition of TRPA1 receptor activation is measured as inhibition of allylisothiocyanate (AITC) induced cellular uptake of radioactive calcium. Test solution of test compound is prepared in a suitable solvent using appropriate method. Human TRPA1 expressing CHO cells are grown in suitable medium. Cells are treated with test compounds followed by addition of AITC. Cells are washed and lysed. Radioactivity in the lysate is measured in Packard Top count after addition of liquid scintillant. The concentration response curves for compounds are plotted as a % of maximal response obtained in the absence of test antagonist, and the IC50 values are calculated from such concentration response curve by nonlinear regression analysis using GraphPad PRISM software.
The illustrative TRPA1 antagonists of the present invention were screened for TRPA1 activity according to a modified procedure described in Tóth, A. et al., Life Sciences 2003, 73, 487-498. The screening of the compounds can be carried out by other methods and procedures known to persons skilled in the art.
Screening for TRPA1 Antagonist Using the 45Calcium Uptake Assay:
The inhibition of TRPA1 receptor activation was measured as inhibition of allylisothiocyanate (AITC) induced cellular uptake of radioactive calcium. Test compounds were dissolved in DMSO to prepare 10 mM stock solution and then diluted using plain medium with 0.1% BSA and 1.8 mM CaCl2 to get desired concentration. Final concentration of DMSO in the reaction was 0.5% (v/v). Human TRPA1 expressing CHO cells were grown in F-12 DMEM medium with 10% FBS, 1% penicillin-streptomycin solution, and 400 μg/ml of G-418. Cells were seeded 24 h prior to the assay in 96 well plates so as to get ˜50,000 cells per well on the day of experiment. Cells were treated with test compounds for 10 min followed by addition of AITC at a final concentration of 30 micromolar and 5 μCi/ml 45Ca+2 for 3 min at 25° C. Cells were washed and lysed using buffer containing 1% Triton X-100, 0.1% deoxycholate and 0.1% SDS. Radioactivity in the lysate was measured in Packard Top count after addition of liquid scintillant.
Concentration response curves were plotted as a % of maximal response obtained in the absence of test antagonist. IC50 value was calculated from concentration response curve by nonlinear regression analysis using GraphPad PRISM software.

[6] = system: ovalbumin sensitized Brown Norway rats; test: Ovalbumin asthma model in Brown Norway rats (Example 5); type: in vivo, rat; settings: i.t. 1 hour before ovalbumin challenge, BAL 48 hours; dose dependent
Description: Male BN rats were sensitized subcutaneously (s.c.) on day 0, 14 and 21 with 0.5 ml solution containing 20 μg/ml ovalbumin (Ova) and 40 mg/ml aluminum hydroxide. Simultaneously the animals were injected intraperitoneally (i.p.) with 0.25 ml of B. pertussis vaccine/rat containing 4×10^8 heat killed bacilli/ml. The rats were challenged with 1% aerosolized ovalbumin on Day 28 following sensitization.
Test compounds were triturated and volume was made up with Normal Saline (0.9% NaCl). Animals were administered TRPA1 antagonists (Compound 52, Compound 73, Compound 84, Compound 90 and Compound 92) intra-tracheally (i.t.) 1 hour and fluticasone 24 hours and 1 hour before ovalbumin challenge. Animals were sacrificed 48 hours after ovalbumin challenge.
BAL was performed at approximately 48 hours after ovalbumin challenge and the pooled BAL was used to determined total number of cells and for cell differential study (according to Example 2).
The total number of eosinophils in each BAL sample and % inhibition of eosinophils were calculated according to Example 3
The data was statistically evaluated by ANOVA followed by Dunnett's multiple comparisons test.

Sequence of human TRPA1 (O75762 whole entry): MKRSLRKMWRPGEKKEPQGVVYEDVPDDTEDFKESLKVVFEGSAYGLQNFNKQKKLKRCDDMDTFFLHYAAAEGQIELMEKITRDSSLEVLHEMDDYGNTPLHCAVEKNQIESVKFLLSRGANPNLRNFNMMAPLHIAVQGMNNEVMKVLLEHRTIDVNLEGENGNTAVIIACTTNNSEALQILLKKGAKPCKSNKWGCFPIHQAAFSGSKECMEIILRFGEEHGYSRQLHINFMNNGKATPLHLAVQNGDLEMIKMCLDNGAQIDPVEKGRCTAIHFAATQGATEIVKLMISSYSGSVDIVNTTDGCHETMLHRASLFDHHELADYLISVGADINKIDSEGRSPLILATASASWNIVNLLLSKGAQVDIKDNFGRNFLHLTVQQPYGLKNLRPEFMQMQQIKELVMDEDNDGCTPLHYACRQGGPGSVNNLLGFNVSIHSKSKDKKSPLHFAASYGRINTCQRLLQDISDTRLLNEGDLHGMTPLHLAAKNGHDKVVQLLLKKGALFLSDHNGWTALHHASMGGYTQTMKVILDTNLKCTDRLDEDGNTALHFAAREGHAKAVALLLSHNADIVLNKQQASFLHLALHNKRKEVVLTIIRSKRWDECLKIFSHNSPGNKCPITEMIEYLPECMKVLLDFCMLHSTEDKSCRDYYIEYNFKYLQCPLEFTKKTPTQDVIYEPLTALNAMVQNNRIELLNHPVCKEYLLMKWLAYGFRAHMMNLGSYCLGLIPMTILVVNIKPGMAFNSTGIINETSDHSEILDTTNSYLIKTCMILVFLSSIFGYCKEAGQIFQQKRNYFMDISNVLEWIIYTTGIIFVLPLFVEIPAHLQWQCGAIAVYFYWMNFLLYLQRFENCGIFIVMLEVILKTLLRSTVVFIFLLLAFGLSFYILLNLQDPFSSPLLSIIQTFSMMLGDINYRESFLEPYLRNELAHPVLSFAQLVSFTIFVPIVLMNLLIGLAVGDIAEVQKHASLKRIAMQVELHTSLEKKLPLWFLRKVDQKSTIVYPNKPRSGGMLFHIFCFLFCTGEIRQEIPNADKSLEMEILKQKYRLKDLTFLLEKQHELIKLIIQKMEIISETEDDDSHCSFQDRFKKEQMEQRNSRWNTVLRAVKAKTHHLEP
Sequence of human TRPV1 (Q8NER1 whole entry): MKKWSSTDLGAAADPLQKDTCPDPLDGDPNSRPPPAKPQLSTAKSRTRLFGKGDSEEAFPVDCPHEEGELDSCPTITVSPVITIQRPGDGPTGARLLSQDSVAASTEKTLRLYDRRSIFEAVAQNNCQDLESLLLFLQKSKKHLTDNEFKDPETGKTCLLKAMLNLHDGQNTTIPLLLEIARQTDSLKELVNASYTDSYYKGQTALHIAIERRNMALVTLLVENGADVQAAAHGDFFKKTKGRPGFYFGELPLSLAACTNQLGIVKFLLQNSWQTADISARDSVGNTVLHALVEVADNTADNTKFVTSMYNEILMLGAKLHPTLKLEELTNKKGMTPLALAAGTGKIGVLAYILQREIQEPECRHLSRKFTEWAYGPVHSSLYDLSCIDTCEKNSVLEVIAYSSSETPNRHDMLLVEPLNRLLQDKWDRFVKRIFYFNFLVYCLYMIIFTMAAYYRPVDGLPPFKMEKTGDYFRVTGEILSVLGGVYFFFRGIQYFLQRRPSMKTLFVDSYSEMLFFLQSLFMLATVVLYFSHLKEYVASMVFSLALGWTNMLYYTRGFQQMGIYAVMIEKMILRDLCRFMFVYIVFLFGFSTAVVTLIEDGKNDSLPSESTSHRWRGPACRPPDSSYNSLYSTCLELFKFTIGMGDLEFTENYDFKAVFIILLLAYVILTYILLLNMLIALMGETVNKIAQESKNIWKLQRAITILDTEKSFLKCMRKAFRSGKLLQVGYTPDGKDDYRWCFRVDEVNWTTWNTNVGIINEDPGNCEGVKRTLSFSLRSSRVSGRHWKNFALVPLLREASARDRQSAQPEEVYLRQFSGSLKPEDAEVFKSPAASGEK
Sequence of human TRPV4 (Q9HBA0 whole entry): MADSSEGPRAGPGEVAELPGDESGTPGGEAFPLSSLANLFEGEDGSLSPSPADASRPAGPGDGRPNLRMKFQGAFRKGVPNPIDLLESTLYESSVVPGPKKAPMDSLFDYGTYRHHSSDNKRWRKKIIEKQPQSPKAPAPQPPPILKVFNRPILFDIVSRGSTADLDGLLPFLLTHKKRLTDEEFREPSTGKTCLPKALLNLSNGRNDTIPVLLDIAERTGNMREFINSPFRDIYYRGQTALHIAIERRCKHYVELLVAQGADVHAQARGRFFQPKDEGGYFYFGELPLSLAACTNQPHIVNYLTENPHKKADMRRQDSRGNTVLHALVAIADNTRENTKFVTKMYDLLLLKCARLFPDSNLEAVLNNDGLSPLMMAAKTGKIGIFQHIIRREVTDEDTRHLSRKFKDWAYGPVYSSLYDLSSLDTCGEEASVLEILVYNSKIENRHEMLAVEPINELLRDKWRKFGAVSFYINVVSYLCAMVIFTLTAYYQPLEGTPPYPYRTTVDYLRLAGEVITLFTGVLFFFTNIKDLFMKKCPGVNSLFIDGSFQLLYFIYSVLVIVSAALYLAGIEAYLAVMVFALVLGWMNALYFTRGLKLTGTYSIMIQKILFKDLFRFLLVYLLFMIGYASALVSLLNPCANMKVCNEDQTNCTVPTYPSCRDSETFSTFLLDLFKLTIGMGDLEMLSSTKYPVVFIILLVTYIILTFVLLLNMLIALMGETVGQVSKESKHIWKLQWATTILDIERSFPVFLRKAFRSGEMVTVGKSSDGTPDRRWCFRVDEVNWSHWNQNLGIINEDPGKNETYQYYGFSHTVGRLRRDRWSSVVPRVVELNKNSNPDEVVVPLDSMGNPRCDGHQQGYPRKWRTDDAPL
Sequence of human TRPV3 (Q8NET8 whole entry): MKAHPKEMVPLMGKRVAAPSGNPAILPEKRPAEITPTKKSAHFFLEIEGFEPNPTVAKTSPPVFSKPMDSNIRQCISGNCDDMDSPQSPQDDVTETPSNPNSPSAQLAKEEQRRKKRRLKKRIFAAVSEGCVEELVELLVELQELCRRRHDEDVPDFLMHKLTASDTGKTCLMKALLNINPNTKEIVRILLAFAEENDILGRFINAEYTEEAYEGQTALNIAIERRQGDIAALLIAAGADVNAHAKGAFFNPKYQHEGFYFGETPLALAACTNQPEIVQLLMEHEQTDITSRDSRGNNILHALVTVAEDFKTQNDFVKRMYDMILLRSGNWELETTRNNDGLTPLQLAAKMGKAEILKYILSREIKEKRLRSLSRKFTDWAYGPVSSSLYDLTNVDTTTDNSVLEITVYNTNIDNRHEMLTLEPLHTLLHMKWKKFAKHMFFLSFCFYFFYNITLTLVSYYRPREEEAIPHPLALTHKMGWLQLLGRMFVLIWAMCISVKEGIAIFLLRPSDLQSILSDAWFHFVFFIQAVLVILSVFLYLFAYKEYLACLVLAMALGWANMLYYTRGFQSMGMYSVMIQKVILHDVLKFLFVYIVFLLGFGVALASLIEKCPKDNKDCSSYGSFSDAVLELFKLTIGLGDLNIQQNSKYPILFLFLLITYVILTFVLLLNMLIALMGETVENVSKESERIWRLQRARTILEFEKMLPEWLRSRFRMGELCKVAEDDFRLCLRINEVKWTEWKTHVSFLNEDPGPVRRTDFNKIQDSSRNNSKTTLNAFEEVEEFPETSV
Sequence of human TRPM8 (Q7Z2W7 whole entry): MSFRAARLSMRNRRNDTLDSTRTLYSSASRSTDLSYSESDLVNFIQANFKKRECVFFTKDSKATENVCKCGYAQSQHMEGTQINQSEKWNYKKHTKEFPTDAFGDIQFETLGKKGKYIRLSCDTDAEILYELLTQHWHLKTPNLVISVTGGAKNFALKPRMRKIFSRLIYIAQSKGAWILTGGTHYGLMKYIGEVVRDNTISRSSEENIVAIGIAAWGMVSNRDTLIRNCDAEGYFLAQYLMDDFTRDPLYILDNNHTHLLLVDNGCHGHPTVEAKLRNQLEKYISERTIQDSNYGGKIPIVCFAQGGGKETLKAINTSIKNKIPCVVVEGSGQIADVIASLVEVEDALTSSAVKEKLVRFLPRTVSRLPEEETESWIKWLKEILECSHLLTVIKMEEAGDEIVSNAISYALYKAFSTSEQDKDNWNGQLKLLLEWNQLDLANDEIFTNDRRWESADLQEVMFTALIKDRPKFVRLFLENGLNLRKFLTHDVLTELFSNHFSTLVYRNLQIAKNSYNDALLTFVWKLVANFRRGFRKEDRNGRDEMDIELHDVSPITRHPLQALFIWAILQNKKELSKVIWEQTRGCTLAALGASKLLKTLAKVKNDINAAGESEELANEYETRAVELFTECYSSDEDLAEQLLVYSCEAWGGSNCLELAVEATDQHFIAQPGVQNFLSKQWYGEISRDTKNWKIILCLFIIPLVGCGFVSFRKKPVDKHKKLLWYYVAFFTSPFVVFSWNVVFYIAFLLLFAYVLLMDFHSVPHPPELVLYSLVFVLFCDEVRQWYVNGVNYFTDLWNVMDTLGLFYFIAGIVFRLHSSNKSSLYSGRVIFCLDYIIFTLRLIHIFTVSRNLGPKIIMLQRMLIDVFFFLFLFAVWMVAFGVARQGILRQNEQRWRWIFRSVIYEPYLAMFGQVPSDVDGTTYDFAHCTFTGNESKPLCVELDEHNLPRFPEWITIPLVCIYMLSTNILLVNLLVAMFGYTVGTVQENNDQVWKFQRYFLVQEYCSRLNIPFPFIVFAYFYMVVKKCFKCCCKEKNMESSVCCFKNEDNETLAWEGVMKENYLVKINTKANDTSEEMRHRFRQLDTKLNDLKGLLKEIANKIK

Structure (SMILES) | IC50 [1] | IC50 [2] | IC50 [3] | IC50 [4] | IC50 [5] | pulmonary eosinophilia [6]
Cc1oc2c(c1CC(=O)Nc1nc(-c3ccc(Cl)c(OC(F)(F)F)c3)cs1)c(=O)n(C)c(=O)n2C [Compound 63] | > 1 µM | > 10 µM | > 10 µM | > 10 µM | 0.00904 µM | –
Cc1oc2c(c1CC(=O)Nc1nc(-c3ccc(F)c(C(F)(F)F)c3F)cs1)c(=O)n(C)c(=O)n2C [Compound 64] | > 1 µM | > 10 µM | > 10 µM | > 10 µM | 0.00452 µM | –
Cc1oc2c(c1CC(=O)Nc1nc(-c3ccc(C(F)(F)F)cc3F)cs1)c(=O)n(C)c(=O)n2C [Compound 65] | > 1 µM | > 10 µM | > 10 µM | > 1 µM | 0.00665 µM | –
Cc1oc2c(c1CC(=O)Nc1nc(-c3cc(F)c(OCC(C)(C)C)c(F)c3)cs1)c(=O)n(C)c(=O)n2C [Compound 66] | > 10 µM | > 10 µM | > 10 µM | > 10 µM | 0.00363 µM | –
Cc1oc2c(c1CC(=O)Nc1nc(-c3cccc(C(F)(F)F)c3F)cs1)c(=O)n(C)c(=O)n2C [Compound 67] | > 1 µM | > 10 µM | > 10 µM | > 10 µM | 0.0136 µM | –
Cc1oc2c(c1CC(=O)Nc1nc(-c3ccc(F)c(OC(F)(F)F)c3)cs1)c(=O)n(C)c(=O)n2C [Compound 68] | > 1 µM | > 10 µM | > 10 µM | > 10 µM | 0.00484 µM | –
Cc1oc2c(c1CC(=O)Nc1nc(-c3ccc(F)c(C(F)(F)F)c3)cs1)c(=O)n(C)c(=O)n2C [Compound 69] | > 1 µM | > 10 µM | > 10 µM | > 1 µM | 0.0071 µM | –
Cc1oc2c(c1CC(=O)Nc1nc(-c3ccc(OC(F)(F)F)c(F)c3)cs1)c(=O)n(C)c(=O)n2C [Compound 70] | > 1 µM | > 10 µM | > 10 µM | > 1 µM | 0.0126 µM | –
Cc1oc2c(c1CC(=O)Nc1nc(-c3ccc(Cl)c(C(F)(F)F)c3)cs1)c(=O)n(C)c(=O)n2C [Compound 71] | > 1 µM | > 10 µM | > 10 µM | > 10 µM | 0.00318 µM | –
Cc1oc2c(c1CC(=O)Nc1nc(-c3cc(F)c(C(F)(F)F)c(F)c3)cs1)c(=O)n(C)c(=O)n2C [Compound 72] | > 1 µM | > 10 µM | > 10 µM | > 1 µM | 0.00416 µM | –
Cc1oc2c(c1CC(=O)Nc1nc(-c3ccc(OCC(F)(F)F)c(Cl)c3)cs1)c(=O)n(C)c(=O)n2C [Compound 74] | > 10 µM | > 10 µM | > 10 µM | > 10 µM | 0.00529 µM | –
Cc1oc2c(c1CC(=O)Nc1nc(-c3cc(Cl)c(OCC(C)C)c(Cl)c3)cs1)c(=O)n(C)c(=O)n2C [Compound 75] | > 10 µM | > 10 µM | > 10 µM | > 10 µM | 0.00334 µM | –
Cn1c(=O)c2c(CC(=O)Nc3nc(-c4cc(F)c(OCC(F)(F)F)c(F)c4)cs3)ccnc2n(C)c1=O [Compound 86] | > 10 µM | > 10 µM | > 10 µM | > 1 µM | 0.00691 µM | –
Cn1c(=O)c2c(CC(=O)Nc3nc(-c4ccc(F)c(C(F)(F)F)c4F)cs3)onc2n(C)c1=O [Compound 92] | > 1 µM | > 10 µM | > 10 µM | > 1 µM | – | significant inhibition

Continued, in another order:

IC50 [1] | IC50 [2] | IC50 [3] | IC50 [4] | IC50 [5] | Structure (SMILES) | pulmonary eosinophilia [6]
2.5 µM | > 10 µM | 8.01 µM | 8.92 µM | 0.00402 µM | Cc1oc2c(c1CC(=O)Nc1nc(-c3ccc(C(F)(F)F)c(F)c3F)cs1)c(=O)n(C)c(=O)n2C [Compound 76] | –
1.77 µM | > 10 µM | > 10 µM | 0.553 µM | 0.0056 µM | Cn1c(=O)c2c(CC(=O)Nc3nc(-c4ccc(F)c(C(F)(F)F)c4F)cs3)nsc2n(C)c1=O [Compound 77] | –
> 1 µM | > 10 µM | > 10 µM | 0.153 µM | 0.0106 µM | Cn1c(=O)c2c(CC(=O)Nc3nc(-c4ccc(C(F)(F)F)cc4F)cs3)nsc2n(C)c1=O [Compound 78] | –
> 1 µM | > 10 µM | > 10 µM | 0.826 µM | 0.00529 µM | Cn1c(=O)c2c(CC(=O)Nc3nc(-c4cccc(C(F)(F)F)c4F)cs3)nsc2n(C)c1=O [Compound 79] | –
> 10 µM | > 10 µM | > 10 µM | 0.279 µM | 0.00628 µM | Cn1c(=O)c2c(CC(=O)Nc3nc(-c4ccc(OC(F)(F)F)c(Cl)c4)cs3)nsc2n(C)c1=O [Compound 80] | –
> 1 µM | > 10 µM | > 10 µM | 0.162 µM | 0.00674 µM | Cn1c(=O)c2c(CC(=O)Nc3nc(-c4ccc(C(F)(F)F)c(F)c4)cs3)nsc2n(C)c1=O [Compound 81] | –
> 1 µM | > 10 µM | > 10 µM | 0.172 µM | 0.00804 µM | Cn1c(=O)c2c(CC(=O)Nc3nc(-c4ccc(OC(F)(F)F)c(F)c4)cs3)nsc2n(C)c1=O [Compound 82] | –
> 1 µM | > 10 µM | > 10 µM | 0.237 µM | 0.0044 µM | Cn1c(=O)c2c(CC(=O)Nc3nc(-c4cc(F)cc(C(F)(F)F)c4)cs3)nsc2n(C)c1=O [Compound 83] | –
> 1 µM | > 10 µM | > 10 µM | 0.62 µM | 0.00892 µM | Cn1c(=O)c2c(CC(=O)Nc3nc(-c4ccc(C(F)(F)F)c(F)c4)cs3)ccnc2n(C)c1=O [Compound 85] | –
> 10 µM | > 10 µM | > 10 µM | 2.01 µM | 0.0193 µM | Cn1c(=O)c2c(CC(=O)Nc3nc(-c4ccc(F)c(C(F)(F)F)c4F)cs3)ccnc2n(C)c1=O [Compound 87] | –
> 1 µM | > 10 µM | > 10 µM | 0.158 µM | 0.0115 µM | Cn1c(=O)c2c(CC(=O)Nc3nc(-c4ccc(OC(F)(F)F)c(F)c4)cs3)ccnc2n(C)c1=O [Compound 88] | –
